Results reported in BigSolDB 2.1.

CCCCC1=NC2(CCCC2)C(=O)N1Cc1ccc(-c2ccccc2-c2nn[nH]n2)cc1
Conditions | solubility (mole fraction)
in 1,4-dioxane, 287.9 K | 0.000466
in 1,4-dioxane, 293.45 K | 0.000634
in 1,4-dioxane, 298 K | 0.000832
in 1,4-dioxane, 303.65 K | 0.00112
in 1,4-dioxane, 308.2 K | 0.00142
in 1,4-dioxane, 312.9 K | 0.00183
in 1,4-dioxane, 318.05 K | 0.00227
in 1,4-dioxane, 322.85 K | 0.00278
in THF, 278.3 K | 0.00127
in THF, 282.85 K | 0.00152
in THF, 288.1 K | 0.00184
in THF, 292.95 K | 0.00229
in THF, 297.7 K | 0.00277
in THF, 303.15 K | 0.00332
in THF, 308.05 K | 0.00396
in THF, 312.7 K | 0.00479
in THF, 318.35 K | 0.00581
in THF, 322.75 K | 0.00687
in acetone, 278.35 K | 0.000284
in acetone, 283.15 K | 0.000364
in acetone, 288.35 K | 0.000444
in acetone, 293.6 K | 0.00053
in acetone, 298.25 K | 0.000678
in acetone, 302.95 K | 0.000861
in acetone, 308.4 K | 0.00105
in acetone, 312.75 K | 0.00129
in acetone, 318.55 K | 0.00158
in acetone, 323.1 K | 0.00192
in chloroform, 277.7 K | 0.0012
in chloroform, 283.3 K | 0.00131
in chloroform, 287.7 K | 0.00146
in chloroform, 292.7 K | 0.00161
in chloroform, 297.75 K | 0.00179
in chloroform, 302.85 K | 0.00201
in chloroform, 307.8 K | 0.00225
in chloroform, 313.4 K | 0.00259
in chloroform, 317.8 K | 0.00294
in chloroform, 323 K | 0.00335
in ethanol, 278.6 K | 0.000333
in ethanol, 283.55 K | 0.000489
in ethanol, 288.5 K | 0.000627
in ethanol, 292.7 K | 0.000809
in ethanol, 297.8 K | 0.00106
in ethanol, 303.05 K | 0.00122
in ethanol, 308.5 K | 0.00159
in ethanol, 313.3 K | 0.0021
in ethanol, 318.5 K | 0.00263
in ethanol, 323.6 K | 0.00341
